US5356796A, “Repressor protein and operon for regulating expression of polypeptides and its use in the preparation of 2,2-dialkyglycine decarboxylase of Pseudomonas cepacia” (priority 1992, dated 1994)

Key:
[1] = system: dialkylglycine decarboxylase gene expression in E. coli DH5α/pKBD6; assay: Time course of dialkylglycine decarboxylase induction in E. coli DH5α/pKBD6; type: cell-based, Escherichia coli; conditions: DH5α/pKBD6 in minimal medium with ammonium chloride; amino acid added during growth (10 mM in FIG. 7 legend, 8.0 mM in method)
Method: FIG. 7 depicts induction of dialkylglycine decarboxylase activity in E. coli DH5a/pKBD6 cultures by various amino acids. One-liter cultures containing minimal salts, glucose, NH4 Cl, and tetracycline (12 μg/ml) were supplemented at the indicated time with amino acid (final concentration, 10 mM). Absorbance of the culture was measured at 600 nm in a 1-cm cell ( -- ). Each activity assay contained 60 absorbance units of resuspended bacteria (.largecircle.--.largecircle.)
Radiochemical Dialkylglycine Decarboxylase Assay--Dialkylglycine decarboxylase activity was measured under zero-order conditions essentially as described (Dinwoodie and Boeker, 1979). Assay reactions contained 500 μL of protein solution (100 mM MOPS^1, (MOPS=3-(N-morphalino)propanesulfonic acid), 25 mM KCl, 0.05 mM PLP, (PLP=pyridoxal 5'-phosphate), pH 7.00 or 30 mM Tris, 40 mM KCl, 0.05 mM PLP pH 7.90) plus 0.045 mL of substrate solution (245 mM 2-methylalanine, 62 mM sodium pyruvate, containing 0.25 μCi [1-^14 C]2-methylalanine)- Assays were carried out in stoppered 12×220 mm test tubes containing a folded 10×25 mm piece of filter paper soaked with 24 μL of 2:1 ethanolamine/2-ethoxyethanol- After incubation at room temperature (25° C.) for one or two hours, the reaction was quenched with 200 μL of 50% trichloroacetic acid, ^14 CO2 was collected for one hour, and the filter paper was counted in 10 mL of Beckman Ready Safe cocktail. One unit is defined as the amount of activity required to produce 1 nanomole of CO2 per min. at 25° C.
Time Course of Dialkylglycine Decarboxylase Induction--An 800-mL portion of M9 containing 12 μg/mL tetracycline in a 6-L conical flask was inoculated with DH5α/pKBD6. The flask was shaken at 37° C. and the absorbance at 600 nm was measured periodically. At various times during cell growth aliquots containing 60. AU's (absorbance units) of cells were removed, stored on ice, concentrated by centrifugation, and resuspended in 1.0 mL MOPS buffer. Aliquots of 0.50 mL were assayed for dialkylglycine activity. After the first two samples were taken, an amino acid (2-methylalanine, R,S-isovaline, D-alanine, or L-alanine) was added to a final concentration of 8.0 mM and sampling was continued.

[2] = system: dialkylglycine decarboxylase gene (dgdA) expression controlled by the P. cepacia repressor, in E. coli JM109/pGEM7Z14; type: cell-based, Escherichia coli; conditions: 20 mM amino acid in culture medium
Method: Induction Stereochemistry--The induction phenomenon was further investigated by surveying the inducing ability of the separate isovaline stereoisomers and 15 other structurally similar amino acids (Table 3).
In some experiments 20 mM 2-methylalanine or other amino acid or 1 mg/mL IPTG was added to the growth medium. […] Protein concentrations were determined by dye binding (Read and Northcote, 1981).

[3] = target: T1, Pseudomonas cepacia 2,2-dialkylglycine decarboxylase repressor (dgdR gene product, SEQ ID NO: 11) bound to operators O1 and O2 (Burkholderia cepacia, UniProt P16931); assay: Gel mobility shift assay of dgdR repressor with the 788 bp DNA fragment in presence of 2-methylalanine; type: binding; conditions: 20 mM 2-methylalanine in gel; 788 bp fragment containing O1 and O2
T1 construct: crude extract or ammonium sulfate fraction; gel shift on dgd operator DNA
Method: Repressor Preparation--A 100 ml portion of LB medium containing about 50 μg/ml carbenicillin was inoculated with about a 2 ml overnight culture of JM109/pJKDGDR1 and was grown at about 37° C. to an OD600 of 1. IPTG was added to a final concentration of about 1 mM, the culture was shaken another 4 h, and then was pelleted by centrifugation at 4000 xg at about 4° C. The pellet was resuspended in 5 ml buffer (50 mM TrisHCl pH 7.9, 50 mM KCl), sonicated 3×0.5 min at about 0° C., and centrifuged for about 15 min at about 12,000 xg at about 4° C. Aliquots of the supernatant were used for gel shift assays and SDS-PAGE. Other aliquots were partially purified by selective precipitation with 1.0 M ammonium sulfate. Protein concentration was determined by the dye binding method of Read and Northcote (1981). […]
Gel Shift Assays--A 10 μl assay mixture contained about 50 ng of DNA fragment, 1.0 μg of repressor extract (or 1.0 μg of extract from a JM109 strain containing a dgdA-pBTac1 recombinant), 10 mM TrisHCl pH 7.6, 5 mM sodium acetate, 2.5% glycerol, and 0.005% bovine serum albumin. The mixture was incubated 5 to 20 min at room temperature, about 3 μl of 50% sucrose/0.1% bromophenol blue was added, and the entire sample was analyzed by electrophoresis in a 1 mm 4% polyacrylamide gel containing about […] Tris, 380 mM glycine, 4 mM EDTA, and 2.5% glycerol. […]

[4] = target: Pseudomonas cepacia 2,2-dialkylglycine decarboxylase (Burkholderia cepacia, UniProt P16932); conditions: isovaline isomer as substrate of the decarboxylase; read-out: Michaelis constant; cited from earlier work
Pseudomonas cepacia 2,2-dialkylglycine decarboxylase, sequence (P16932 2-433): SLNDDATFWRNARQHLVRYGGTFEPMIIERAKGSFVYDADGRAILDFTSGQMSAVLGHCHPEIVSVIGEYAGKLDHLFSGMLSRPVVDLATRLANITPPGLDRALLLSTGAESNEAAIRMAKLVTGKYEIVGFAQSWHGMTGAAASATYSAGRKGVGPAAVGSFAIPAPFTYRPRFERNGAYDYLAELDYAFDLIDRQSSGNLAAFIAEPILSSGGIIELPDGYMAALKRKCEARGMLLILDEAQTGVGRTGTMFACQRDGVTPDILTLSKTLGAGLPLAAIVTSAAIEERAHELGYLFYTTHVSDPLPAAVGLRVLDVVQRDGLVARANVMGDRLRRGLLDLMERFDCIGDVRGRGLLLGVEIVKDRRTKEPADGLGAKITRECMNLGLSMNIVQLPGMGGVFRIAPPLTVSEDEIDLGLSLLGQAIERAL

T1 sequence (P16931 whole entry, the tested form may be a part): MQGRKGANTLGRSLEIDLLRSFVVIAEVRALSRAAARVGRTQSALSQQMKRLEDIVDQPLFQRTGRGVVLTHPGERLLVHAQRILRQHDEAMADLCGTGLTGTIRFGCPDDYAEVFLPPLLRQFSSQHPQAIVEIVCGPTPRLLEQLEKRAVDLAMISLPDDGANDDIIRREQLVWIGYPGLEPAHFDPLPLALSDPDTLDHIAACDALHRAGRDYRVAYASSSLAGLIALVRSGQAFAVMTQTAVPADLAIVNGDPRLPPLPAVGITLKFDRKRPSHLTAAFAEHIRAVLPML

Compound	induction of decarboxylase specific activity after amino acid addition (in words) [1]	also measured
CCC(C)(N)C(=O)O (racemic) [racemic isovaline, isovaline (2-ethylalanine)]	immediate and rapid increase in decarboxylase specific activity	–
NC1(C(=O)O)CCCC1 [1-Aminocyclopentane carboxylic acid]	–	induction of decarboxylase (in words) [2]: induced an intermediate level
CC(C)(N)C(=O)O [2-Methylalanine]	immediate and rapid increase in decarboxylase specific activity	effect on repressor binding to operators (gel shift, in words) [3]: releases O1, but not O2, binding
C[C@@H](N)C(=O)O [D-Alanine]	no decarboxylase production	–
C[C@H](N)C(=O)O [L-Alanine]	no decarboxylase production	–
CC[C@@](C)(N)C(=O)O [R-Isovaline]	–	Km [4]: 1 mM
CC[C@](C)(N)C(=O)O [S-Isovaline]	–	Km [4]: 25 mM
